According to article PMC5796017, “Enantiomeric Effect of D-Amino Acid Substitution on the Mechanism of Action of α-Helical Membrane-Active Peptides” (International Journal of Molecular Sciences, 2017):
Converted amounts (≈) assume the structure as drawn.

Assays:
E. coli ATCC25922 [1] = experiment: Antimicrobial activity, microtiter dilution MIC; assay type: cell-based, Escherichia coli; details: G−; MH medium, 5 × 10^5 CFU/mL, 37 °C, 24 h, triplicate
Method in brief: (§1)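 Broth microdilution in Mueller–Hinton medium, inoculum 5 × 10^5 CFU/mL, serially diluted peptide, 24 h at 37 °C. MIC taken as lowest peptide concentration preventing growth; triplicate runs.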

HeLa cells = experiment: AFM imaging; assay type: cell-based, human; details: treatment 5 min, DMEM, AAC mode
Description: The mechanism of the interaction of the peptides with the different kinds of membranes was further analyzed by AFM. E. coli and HeLa cells were imaged to observe the morphologic change of cell membranes with, and without, treatment with V13K. […] Similarly, the surface of untreated cells fixed with, or without, 4% paraformaldehyde were intact and the membrane surface appeared quite smooth (Figure 4E–H).
The AFM imaging of E. coli ATCC25922 and HeLa cells before, and after, incubation with V13K were performed using an AFM 5500 (Agilent Technologies, Chandler, AZ, USA). The AFM imaging of E. coli was used on the contact mode and the cantilever was used as the B-tip (DNP, B-tip, Bruker AFM probes, California, CA, USA). The AFM imaging of HeLa was used on the AAC mode and the cantilever was used as the D-tip (DNP, D-tip, Bruker AFM probes, Camarillo, California, CA, USA). A single bacterial colony was picked and cultured in Mueller–Hinton (MH) medium for 18–20 h. […] The E. coli and peptide-treated bacteria samples (after treatment for 30 min) were applied onto mica and imaged in air using the contact mode and recorded with 512 × 512 pixels. The images of HeLa cells and peptide-treated HeLa cells (after treatment for 5 min) were obtained in Dulbecco’s Modified Eagle’s medium (DMEM) using the Acoustic AC (AAC) mode and recorded with 512 × 512 pixels. […]

BxPC-3 = experiment: MTT cell viability assay; assay type: cell-based, human; details: BxPC-3, MTT, 24 h; mean ± SEM of three independent determinations
Method in brief: (§2)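 Cells seeded at 5000 per well in DMEM/10% FBS, exposed to peptides for 24 h at 37 °C. Viability by MTT, formazan dissolved in DMSO, absorbance at 492 nm. IC50 is the concentration giving 50% viability loss; triplicate.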

MIA PaCa-2 = experiment: MTT cell viability assay; assay type: cell-based, human; details: MIA PaCa-2, MTT, 24 h; mean ± SEM of three independent determinations
Method in brief: as §2

HPAC = experiment: MTT cell viability assay; assay type: cell-based, human; details: 24 h, mean ± SEM of three independent determinations
Method in brief: as §2

HeLa = experiment: MTT cell viability assay; assay type: cell-based, human; details: 24 h, mean ± SEM of three independent determinations
Method in brief: as §2

S. aureus ATCC25923 = experiment: Antimicrobial activity, microtiter dilution MIC; assay type: cell-based, Staphylococcus aureus; details: G+; MH medium, 5 × 10^5 CFU/mL, 37 °C, 24 h, triplicate
Method in brief: as §1

E. coli ATCC25922 [2] = experiment: Outer membrane permeability assay (NPN uptake); assay type: cell-based, Escherichia coli; details: 16 μM peptide, 10 min, excitation 350 nm, emission 420 nm
Excerpt: To explore the potential role of the helicity of the peptides in damaging cell membranes, we investigated the disruption of the outer membrane of Escherichia coli (E. coli) by quantifying the fluorescence intensity of 1-N-phenylnaphthylamine (NPN), which is a hydrophobic fluorescent probe. The intensity of NPN is weak in a hydrophilic environment. The fluorescence intensity of NPN gradually increases as it is exposed to a more hydrophobic environment due to damage to the bacterial outer membrane by MAPs.
The outer membrane permeability of the peptides against E. coli ATCC25922 was evaluated using the hydrophobic fluorescent probe NPN, as performed previously. In brief, E. coli was cultured in LB medium at 37 °C until the absorbance of the bacterial suspension at 600 nm was 0.4–0.6, the bacterial pellet was collected by centrifugation and resuspended in a reaction buffer (pH 7.4, 5 mM HEPES, 5 mM NaN3, 0.25 mM NPN) until the absorbance at 600 nm was 0.5. Then, an aliquot of the peptide sample and the bacterial suspension were co-incubated to give a final peptide concentration of 16 μM. The same volume of reaction buffer was used as the negative control. A Shimadzu RF-5301 PC fluorescent spectrometer (excitation wavelength of 350 nm, emission wavelength of 420 nm) was used to collect data continuously for 10 min.

CC[C@H](C)[C@H](NC(=O)[C@H](C)NC(=O)[C@H](CCCCN)NC(=O)[C@H](CC(C)C)NC(=O)[C@H](C)NC(=O)[C@@H](NC(=O)[C@H](Cc1cnc[nH]1)NC(=O)[C@H](CC(C)C)NC(=O)[C@@H](NC(=O)[C@@H](NC(=O)[C@H](CCCCN)NC(=O)[C@H](CCCCN)NC(=O)[C@H](C)NC(=O)[C@H](CO)NC(=O)[C@H](CCCCN)NC(=O)[C@H](Cc1ccccc1)NC(=O)[C@@H](NC(=O)[C@H](CCCCN)NC(=O)[C@H](CC(C)C)NC(=O)[C@H](Cc1ccccc1)NC(=O)[C@H](CO)NC(=O)[C@H](CCCCN)NC(=O)[C@H](Cc1c[nH]c2ccccc12)NC(=O)[C@H](CCCCN)NC(C)=O)[C@@H](C)O)[C@@H](C)O)C(C)C)[C@@H](C)O)C(=O)N[C@@H](CO)C(=O)N[C@@H](CO)C(N)=O [Peptide V13K]
MIC (E. coli ATCC25922 [1]): 8 µM (≈ 23.9 µg/mL) | Morphology of HeLa cell membrane by AFM (HeLa cells): pores and cavities were visible on the surface of the cells | IC50 (BxPC-3): 12.5 ± 1.2 µM | IC50 (MIA PaCa-2): 24.8 ± 0.6 µM | IC50 (HPAC): 7.6 ± 4 µM | IC50 (HeLa): 16 ± 0.5 µM | MIC (S. aureus ATCC25923): 32 µM (≈ 95.7 µg/mL) | Outer membrane permeabilization, NPN fluorescence intensity (E. coli ATCC25922 [2]): enhanced
